The record followed here is ChEMBL document CHEMBL5154820 (Eur J Med Chem, 2022).

Data set [1] can be described thus: Antiproliferation activity against human MS751 cells assessed as reduction in cell growth measured after 48 to 72 hrs by CCK-8 assay. The data set is classed as functional, cell-based. (Tetrazolium assays rely on reduction of a dye to a coloured formazan, in cell work by metabolically active cells.)
A short description of data set [2]: Retention time of the compound. The data set is classed as physicochemical.
In the next data set the test system is SiHa. Briefly: Antiproliferation activity against human SiHa cells assessed as reduction in cell growth measured after 48 to 72 hrs by CCK-8 assay. The data set is classed as functional, cell-based.
Another data set concerns HeLa. Briefly: Antiproliferation activity against human HeLa cells assessed as reduction in cell growth measured after 48 to 72 hrs by CCK-8 assay. The data set is classed as functional, cell-based.
Another data set deals with Tubulin (Sus scrofa, UniProt P02554+P02550). Briefly: Inhibition of pig brain tubulin polymerization by spectrophotometeric analysis. Further details: species or system Sus scrofa domesticus.
The target of data set [3] is T1, Tubulin beta (Homo sapiens) (UniProt P68371+Q9H4B7+Q13509+P04350+Q3ZCM7+P07437+Q13885+Q9BVA1+Q9BUF5+A6NNZ2). Briefly: Binding affinity to beta-tubulin colchicine binding site in human HeLa cells assessed as decrease of adduct formation by measuring gray value measured at 5 uM incubated for 2 hrs followed by addition of EBI measured after 1.5 hrs by EBI competition based Western blotting analysis. The data set is classed as cell-based. To be noted: time 3.5 hrs. Background: A western blot detects proteins with antibodies after separation by electrophoresis.

Data set [4] concerns the target T1, Tubulin beta (Homo sapiens). Briefly: Binding affinity to beta-tubulin colchicine binding site in human HeLa cells assessed as decrease of adduct formation by measuring gray value measured at 25 uM incubated for 2 hrs followed by addition of EBI measured after 1.5 hrs by EBI competition based Western blotting analysis. The data set is classed as cell-based. The following applies: time 3.5 hrs.

The species entered for a further data set is Bos taurus. Briefly: Inhibition of calf brain tubulin polymerization upto 50 uM measured after 40 mins by spectrophotometric analysis.
In the next data set the test system is HCT-116. As to the kind of experiment: Antiproliferation activity against human HCT-116 cells assessed as reduction in cell growth. The data set is classed as functional, cell-based.
In another data set the test system is A549. As to the kind of experiment: Antiproliferation activity against human A549 cells assessed as reduction in cell growth. The data set is classed as functional, cell-based.

The source made the active and inactive calls. The calls are words filed in the database; no cut-off is given here.

With `COc1ccc(-c2cncnc2-c2cc(OC)c(OC)c(OC)c2)cc1Cl`, the IC50 is 0.79 µM in [1], 1.33 µM in the data set on SiHa, 0.32 µM with HeLa and 53.1 µM on Tubulin. The molecule also came in with a Retention_time in data set [2] of 2.23 min.

`COc1cc(-c2ncncc2-c2ccc(OCC(F)(F)F)cc2)cc(OC)c1OC`: the results for the IC50 (in data set [1]; with SiHa; with HeLa) were 9 µM, 33.3 µM and 10.2 µM, respectively.

As to `CCOc1ccc(-c2cncnc2-c2cc(OC)c(OC)c(OC)c2)cc1`, the IC50 is 0.22 µM in data set [1], 0.64 µM in the data set with SiHa, 0.25 µM in the data set with HeLa and 3.7 µM on Tubulin.

On to `COc1cc(-c2ncncc2-c2ccc(C(N)=O)cc2)cc(OC)c1OC`, for which the concentration for half-maximal inhibition (IC50) (in data set [1]; with SiHa; in the data set on HeLa) was > 100 µM each time.

Regarding `CNC(=O)c1ccc(-c2cncnc2-c2cc(OC)c(OC)c(OC)c2)cc1`, the IC50 in [1] was determined as 13.2 µM; in the data set on SiHa, 10.9 µM; in the data set on HeLa, 1.47 µM.

For the molecule `COc1ccc(-c2cncnc2-c2cc(OC)c(OC)c(OC)c2)nc1`, the IC50 in data set [1] was found to be 0.83 µM; in the data set on SiHa, 1.75 µM; with HeLa, 0.47 µM; at Tubulin, 63.7 µM.

Regarding `COc1cc(-c2ncncc2-c2ccc(B(O)O)cc2)cc(OC)c1OC`, the figures for the half-inhibitory concentration (IC50) (in [1]; with SiHa; with HeLa) were 32.4 µM, 17.5 µM and 4 µM, respectively.

As to `COc1cc(-c2ncncc2-c2ccc(Br)cc2)cc(OC)c1OC`, the figures for the half-inhibitory concentration (IC50) (in data set [1]; in the data set with SiHa; with HeLa) were 2.84 µM, 2.96 µM and 0.5 µM, respectively.

Consider `COc1cc(-c2ncncc2-c2ccc(SC)cc2)cc(OC)c1OC`, for which the IC50 in data set [1] is 0.13 µM; with SiHa, 0.56 µM; in the data set with HeLa, 0.22 µM; on Tubulin it was 9.3 µM.

For `COc1cc(-c2ncncc2-c2ccc3c(c2)OCO3)cc(OC)c1OC`, the IC50 in data set [1] is 1.36 µM; with SiHa, 5.4 µM; in the data set on HeLa it was 1.16 µM.

For `CC[C@]1(O)C[C@H]2CN(CCc3c([nH]c4ccccc34)[C@@](C(=O)OC)(c3cc4c(cc3OC)N(C=O)[C@H]3[C@@](O)(C(=O)OC)[C@H](OC(C)=O)[C@]5(CC)C=CCN6CC[C@]43[C@@H]65)C2)C1`, the Activity in data set [3] is 1.12; in data set [4] it was 0.98.

On to `COc1cc(-c2ncncc2-c2ccc(C(=O)N(C)C)cc2)cc(OC)c1OC`, for which the IC50 in data set [1] was found to be 1.37 µM; in the data set on SiHa, 20.2 µM; in the data set on HeLa it was 0.79 µM.

Consider `CCOc1ccc(-c2cncnc2-c2cc(OC)c(OC)c(OC)c2)cc1C(F)(F)F`, for which the IC50 is 25 µM in [1], 20 µM in the data set on SiHa, 0.79 µM with HeLa and > 100 µM against Tubulin.

For the molecule `COc1cc(-c2ncncc2-c2ccc(OC(C)C)cc2)cc(OC)c1OC`, the IC50 in [1] amounted to 33.9 µM; in the data set with SiHa it was 9.97 µM; with HeLa, 8.36 µM.

`COc1cc(-c2ncncc2-c2ccc3cc[nH]c3c2)cc(OC)c1OC`: the IC50 in data set [1] is 1.09 µM; in the data set with SiHa, 2.18 µM; in the data set with HeLa, 0.77 µM; on Tubulin, 62.8 µM.

Take `COc1cc(-c2ncncc2-c2cccc3ccccc23)cc(OC)c1OC`: the outcome in the data set filed under Bos taurus was Active. Besides, the 50% inhibitory concentration (IC50) in the data set on HCT-116 and in the data set with A549 was 2.5 µM each time.

For `CCOc1ccc(-c2cncnc2-c2cc(OC)c(OC)c(OC)c2)cc1F`, the IC50 came to 0.75 µM in [1], 0.8 µM with SiHa, 0.47 µM with HeLa and 17.1 µM at Tubulin.

For `COc1ccc(-c2cncnc2-c2cc(OC)c(OC)c(OC)c2)cc1F`, the IC50 in data set [1] is 1.1 µM; in the data set with SiHa, 3.34 µM; in the data set with HeLa, 0.5 µM; against Tubulin, 29.9 µM.

On to `COc1cc2c(c(OC)c1OC)-c1ccc(OC)c(=O)cc1[C@@H](NC(C)=O)CC2` [COLCHICINE], for which the IC50 in [1] turned out to be 0.035 µM; in the data set with SiHa, 0.045 µM; in the data set on HeLa it was 0.042 µM.

Regarding `CCOC(=O)Oc1cc(-c2cncnc2-c2cc(OC)c(OC)c(OC)c2)ccc1OC`, the IC50 in [1] was 0.78 µM; in the data set with SiHa, 1.89 µM; in the data set on HeLa it was 0.65 µM; against Tubulin, > 100 µM.

Regarding `COc1ccc(-c2cncnc2-c2cc(OC)c(OC)c(OC)c2)cc1O`, the 50% inhibitory concentration (IC50) in [1] was found to be 0.83 µM; in the data set with SiHa, 2.75 µM; with HeLa it was 0.28 µM; against Tubulin, 13.4 µM.

Consider `COc1ccc(-c2cncnc2-c2cc(OC)c(OC)c(OC)c2)cc1`, for which the 50% inhibitory concentration (IC50) amounted to 1.3 µM in data set [1], 2.85 µM in the data set with SiHa, 1.14 µM in the data set on HeLa and 71.2 µM at Tubulin.

In the case of `CCSc1ccc(-c2cncnc2-c2cc(OC)c(OC)c(OC)c2)cc1`, the IC50 stood at 1.56 µM in data set [1], 1.03 µM in the data set on SiHa and 0.37 µM in the data set on HeLa.

As usually defined, the IC50 is the concentration that gives 50% inhibition.
